# Reference: patent publication US7829533B2, “Cyclosporin analog formulations” (Isotechnika Inc., priority 2001, dated 2010)
# Assay: Toxicokinetic study in the rabbit model (serum creatinine, hematology, organ examination)
# Experimental: On Days 1 and 7, blood samples were collected prior to drug administration and at 0.5, 1, 2, 4, 8, 12, 18, and 24 hours post-dose to generate a pharmacokinetic profile. Other evaluated parameters included clinical observations, body weight, food consumption, hematology, clinical chemistry, gross pathology, and histopathological examination of selected tissues/organs.
structure (smiles),measurement,setting,value
C=C/C=C/C[C@@H](C)[C@@H](O)[C@H]1C(=O)N[C@@H](CC)C(=O)N(C)CC(=O)N(C)[C@@H](CC(C)C)C(=O)N[C@@H](C(C)C)C(=O)N(C)[C@@H](CC(C)C)C(=O)N[C@@H](C)C(=O)N[C@H](C)C(=O)N(C)[C@@H](CC(C)C)C(=O)N(C)[C@@H](CC(C)C)C(=O)N(C)[C@@H](C(C)C)C(=O)N1C [ISATX247],Examination of organs: spermatogenesis,"male rabbits, 15 mg/kg",decrease in spermatogenesis
same,Examination of organs,"rabbits, 5 mg/kg",no significant abnormalities
same,Examination of organs,"rabbits, 10 mg/kg",no significant abnormalities
same,Interstitial fibrosis in the kidneys,"rabbits, 10 mg/kg cyclosporine A, 5 or 10 mg/kg ISATx247",no evidence of interstitial fibrosis
same,Increase in serum creatinine levels,"rabbits, 15 mg/kg/day",did not result in any significant increase
same,Changes in hematological parameters,"rabbits, 30-day study",No significant changes
